Molecular target: T1, hSTING (Homo sapiens, UniProt Q86WV6, G230A/H232R/R293Q/R71H)
T1 construct: host or cells: THP1-Dual KO-IFNAR2 cells
Assay: STING reporter assay (luciferase) in THP1-Dual KO-IFNAR2 cells stimulated with 2′3′cGAMP
Format: cell-based
Details: 15 μM 2′3′cGAMP transfected, 24 h, luciferase reporter activity
Experimental: STING pathway activation by the compounds described herein was measured using THP1-Dual™ cells (KO-IFNAR2).
THP1-Dual™ KO-IFNAR2 Cells (obtained from invivogen) were maintained in RPMI, 10% FCS, 5 ml P/S, 2 mM L-glut, 10 mM Hepes, and 1 mM sodium pyruvate. Compounds were spotted in empty 384 well tissue culture plates (Greiner 781182) by Echo for a final concentration of 0.0017-100 μM. Cells were plated into the TC plates at 40 μL per well, 2×10E6 cells/mL. For activation with STING ligand, 2′3′cGAMP (MW 718.38, obtained from Invivogen), was prepared in Optimem media.
The following solutions were prepared for each 1×384 plate: • Solution A: 2 mL Optimem with one of the following stimuli: • 60 μL of 10 mM 2′3′cGAMP→150 μM stock • Solution B: 2 mL Optimem with 60 μL Lipofectamine 2000→Incubate 5 min at RT
2 mL of solution A and 2 ml Solution B was mixed and incubated for 20 min at room temperature (RT). 20 μL of transfection solution (A+B) was added on top of the plated cells, with a final 2′3′cGAMP concentration of 15 μM. The plates were then centrifuged immediately at 340 g for 1 minute, after which they were incubated at 37° C., 5% CO2, >98% humidity for 24 h. Luciferase reporter activity was then measured. EC50 values were calculated by using standard methods known in the art.
Luciferase reporter assay: 10 μL of supernatant from the assay was transferred to white 384-plate with flat bottom and squared wells. One pouch of QUANTI-Luc™ Plus was dissolved in 25 mL of water. 100 μL of QLC Stabilizer per 25 mL of QUANTI-Luc™ Plus solution was added. 50 μL of QUANTI-Luc™ Plus/QLC solution per well was then added. Luminescence was measured on a Platereader (e.g., Spectramax I3X (Molecular Devices GF3637001)).
Luciferase reporter activity was then measured. EC50 values were calculated by using standard methods known in the art.

T1 sequence (Q86WV6 whole entry R71H/G230A/H232R/R293Q): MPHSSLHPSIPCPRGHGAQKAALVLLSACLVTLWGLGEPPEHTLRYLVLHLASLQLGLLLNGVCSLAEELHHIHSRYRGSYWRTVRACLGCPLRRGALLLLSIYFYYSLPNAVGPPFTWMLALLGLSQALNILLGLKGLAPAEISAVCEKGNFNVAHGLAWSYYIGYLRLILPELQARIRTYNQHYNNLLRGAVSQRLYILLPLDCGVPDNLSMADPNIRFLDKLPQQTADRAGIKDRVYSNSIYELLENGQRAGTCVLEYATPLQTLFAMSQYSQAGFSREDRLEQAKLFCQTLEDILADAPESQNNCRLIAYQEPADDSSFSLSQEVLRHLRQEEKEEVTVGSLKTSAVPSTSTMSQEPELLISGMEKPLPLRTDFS

EC50 [µM] | Structure (SMILES)
0.2 to 1 | O=C(CCn1cccn1)Nc1c[nH]c2ccc(-c3cnn(-c4ccc(C(F)(F)F)cc4)c3)cc12 [Compound 143, 3-(1H-pyrazol-1-yl)-N-(5-(1-(4-(trifluoromethyl)phenyl)-1H-pyrazol-4-yl)-1H-indol-3-yl)propanamide]
0.2 to 1 | Cc1cc(CC(=O)Nc2c[nH]c3ccc(-c4cnn(-c5ccc(C(F)(F)F)cc5)c4)cc23)on1 [Compound 144, 2-(3-methylisoxazol-5-yl)-N-(5-(1-(4-(trifluoromethyl)phenyl)-1H-pyrazol-4-yl)-1H-indol-3-yl)acetamide]
0.2 to 1 | O=C(Cc1ncc(F)cn1)Nc1c[nH]c2ccc(-c3cnn(-c4ccc(C(F)(F)F)cc4)c3)cc12 [Compound 145, 2-(5-fluoropyrimidin-2-yl)-N-(5-(1-(4-(trifluoromethyl)phenyl)-1H-pyrazol-4-yl)-1H-indol-3-yl)acetamide]
0.2 to 1 | Cn1cc(CC(=O)Nc2c[nH]c3ccc(-c4cnn(-c5ccc(C(F)(F)F)cc5)c4)cc23)cn1 [Compound 146, 2-(1-methyl-1H-pyrazol-4-yl)-N-(5-(1-(4-(trifluoromethyl)phenyl)-1H-pyrazol-4-yl)-1H-indol-3-yl)acetamide]
0.2 to 1 | O=C(CCc1ncccn1)Nc1c[nH]c2ccc(-c3cnn(-c4ccc(C(F)(F)F)cc4)c3)cc12 [Compound 147, 3-(pyrimidin-2-yl)-N-(5-(1-(4-(trifluoromethyl)phenyl)-1H-pyrazol-4-yl)-1H-indol-3-yl)propanamide]
0.2 to 1 | O=C(CCc1nccs1)Nc1c[nH]c2ccc(-c3cnn(-c4ccc(C(F)(F)F)cc4)c3)cc12 [Compound 148, 3-(thiazol-2-yl)-N-(5-(1-(4-(trifluoromethyl)phenyl)-1H-pyrazol-4-yl)-1H-indol-3-yl)propanamide]
5 to 100 | O=C(Cc1ncc[nH]1)Nc1c[nH]c2ccc(-c3cnn(-c4ccc(C(F)(F)F)cc4)c3)cc12 [Compound 149, 2-(1H-imidazol-2-yl)-N-(5(1-(4-(trifluoromethyl)phenyl)-1H-pyrazol-4-yl)-1H-indol-3-yl)acetamide]
1 to 5 | Cc1nc(CC(=O)Nc2c[nH]c3ccc(-c4cnn(-c5ccc(C(F)(F)F)cc5)c4)cc23)n[nH]1 [Compound 150, 2-(5-methyl-1H-1,2,4-triazol-3-yl)-N-(5-(1-(4-(trifluoromethyl)phenyl)-1H-pyrazol-4-yl)-1H-indol-3-yl)acetamide]
1 to 5 | NC1(CC(=O)Nc2c[nH]c3ccc(-c4cnn(-c5ccc(C(F)(F)F)cc5)c4)cc23)CCCCC1 [Compound 151, 2-(1-aminocyclohexyl)-N-(5-(1-(4-(trifluoromethyl)phenyl)-1H-pyrazol-4-yl)-1H-indol-3-yl)acetamide]
1 to 5 | O=C(Nc1c[nH]c2ccc(-c3cnn(-c4ccc(C(F)(F)F)cc4)c3)cc12)[C@@H](O)C1CCCCC1 [Compound 152, (S)-2-cyclohexyl-2-hydroxy-N-(5-(1-(4-(trifluoromethyl)phenyl)-1H-pyrazol-4-yl)-1H-indol-3-yl)acetamide]
1 to 5 | Cn1cnnc1CCC(=O)Nc1c[nH]c2ccc(-c3cnn(-c4ccc(C(F)(F)F)cc4)c3)cc12 [Compound 153, 3-(4-methyl-4H-1,2,4-triazol-3-yl)-N-(5-(1-(4-(trifluoromethyl)phenyl)-1H-pyrazol-4-yl)-1H-indol-3-yl)propanamide]
1 to 5 | O=C(Nc1c[nH]c2ccc(-c3cnn(-c4ccc(C(F)(F)F)cc4)c3)cc12)C(O)c1ccccc1 (centres unmarked) [Compound 154, 2-hydroxy-2-phenyl-N-(5-(1-(4-(trifluoromethyl)phenyl)-1H-pyrazol-4-yl)-1H-indol-3-yl)acetamide]
0.2 to 1 | O=C(CCN1CCCC1=O)Nc1c[nH]c2ccc(-c3cnn(-c4ccc(C(F)(F)F)cc4)c3)cc12 [Compound 155, 3-(2-oxopyrrolidin-1-yl)-N-(5-(1-(4-(trifluoromethyl)phenyl)-1H-pyrazol-4-yl)-1H-indol-3-yl)propanamide]
1 to 5 | C[C@H](C(=O)Nc1c[nH]c2ccc(-c3cnn(-c4ccc(C(F)(F)F)cc4)c3)cc12)N1CCCC1=O [Compound 156, (R)-2-(2-oxopyrrolidin-1-yl)-N-(5-(1-(4-(trifluoromethyl)phenyl)-1H-pyrazol-4-yl)-1H-indol-3-yl)propanamide]
0.2 to 1 | O=C(CC1CC(F)(F)C1)Nc1c[nH]c2ccc(-c3cnn(-c4ccc(C(F)(F)F)cc4)c3)cc12 [Compound 157, 2-(3,3-difluorocyclobutyl)-N-(5-(1-(4-(trifluoromethyl)phenyl)-1H-pyrazol-4-yl)-1H-indol-3-yl)acetamide]
0.2 to 1 | O=C(CS(=O)(=O)C1CC1)Nc1c[nH]c2ccc(-c3cnn(-c4ccc(C(F)(F)F)cc4)c3)cc12 [Compound 158, 2-(cyclopropylsulfonyl)-N-(5-(1-(4-(trifluoromethyl)phenyl)-1H-pyrazol-4-yl)-1H-indol-3-yl)acetamide]
0.2 to 1 | O=C(CCn1cncn1)Nc1c[nH]c2ccc(-c3cnn(-c4ccc(C(F)(F)F)cc4)c3)cc12 [Compound 159, 3-(1H-1,2,4-triazol-1-yl)-N-(5-(1-(4-(trifluoromethyl)phenyl)-1H-pyrazol-4-yl)-1H-indol-3-yl)propanamide]
1 to 5 | Cc1noc(C)c1CC(=O)Nc1c[nH]c2ccc(-c3cnn(-c4ccc(C(F)(F)F)cc4)c3)cc12 [Compound 160, 2-(3,5-dimethylisoxazol-4-yl)-N-(5-(1-(4-(trifluoromethyl)phenyl)-1H-pyrazol-4-yl)-1H-indol-3-yl)acetamide]
0.2 to 1 | O=C(CN1CCOC1=O)Nc1c[nH]c2ccc(-c3cnn(-c4ccc(C(F)(F)F)cc4)c3)cc12 [Compound 161, 2-(2-oxooxazolidin-3-yl)-N-(5-(1-(4-(trifluoromethyl)phenyl)-1H-pyrazol-4-yl)-1H-indol-3-yl)acetamide]
0.2 to 1 | O=C(CC1(O)CCC1)Nc1c[nH]c2ccc(-c3cnn(-c4ccc(C(F)(F)F)cc4)c3)cc12 [Compound 162, 2-(1-hydroxycyclobutyl)-N-(5-(1-(4-(trifluoromethyl)phenyl)-1H-pyrazol-4-yl)-1H-indol-3yl)acetamide]
0.2 to 1 | COC1(CC(=O)Nc2c[nH]c3ccc(-c4cnn(-c5ccc(C(F)(F)F)cc5)c4)cc23)CCC1 [Compound 163, 2-(1-methoxycyclobutyl)-N-(5-(1-(4-(trifluoromethyl)phenyl)-1H-pyrazol-4-yl)-1H-indol-3-yl)acetamide]
1 to 5 | O=C(Cn1cncn1)Nc1c[nH]c2ccc(-c3cnn(-c4ccc(C(F)(F)F)cc4)c3)cc12 [Compound 164, 2-(1H-1,2,4-triazol-1-yl)-N-(5-(1-(4-(trifluoromethyl)phenyl)-1H-pyrazol-4-yl)-1H-indol-3yl)acetamide]
0.2 to 1 | Cc1nc(CC(=O)Nc2c[nH]c3ccc(-c4cnn(-c5ccc(C(F)(F)F)cc5)c4)cc23)cs1 [Compound 165, 2-(2-methylthiazol-4-yl)-N-(5-(1-(4-(trifluoromethyl)phenyl)-1H-pyrazol-4-yl)-1H-indol-3-yl)acetamide]
1 to 5 | O=C(CN1CCCC1=O)Nc1c[nH]c2ccc(-c3cnn(-c4ccc(C(F)(F)F)cc4)c3)cc12 [Compound 166, 2-(2-oxopyrrolidin-1-yl)-N-(5-(1-(4-(trifluoromethyl)phenyl)-1H-pyrazol-4-yl)-1H-indol-3-yl)acetamide]
0.2 to 1 | O=C(CCN1CCOC1=O)Nc1c[nH]c2ccc(-c3cnn(-c4ccc(C(F)(F)F)cc4)c3)cc12 [Compound 167, 3-(2-oxooxazolidin-3-yl)-N-(5-(1-(4-(trifluoromethyl)phenyl)-1H-pyrazol-4-yl)-1H-indol-3-yl)propanamide]
0.2 to 1 | Cn1ccc(CC(=O)Nc2c[nH]c3ccc(-c4cnn(-c5ccc(C(F)(F)F)cc5)c4)cc23)n1 [Compound 168, 2-(1-methyl-1H-pyrazol-3-yl)-N-(5-(1-(4-(trifluoromethyl)phenyl)-1H-pyrazol-4-yl)-1H-indol-3-yl)acetamide]

— patent publication US20220024906A1, “COMPOUNDS AND COMPOSITIONS FOR TREATING CONDITIONS ASSOCIATED WITH STING ACTIVITY” (IFM Due, Inc., priority 2020, published 2022)
